Molecular target: T1, Tyrosine-protein kinase receptor TYRO3 (Homo sapiens, UniProt Q06418)
T1 sequence (Q06418 whole entry): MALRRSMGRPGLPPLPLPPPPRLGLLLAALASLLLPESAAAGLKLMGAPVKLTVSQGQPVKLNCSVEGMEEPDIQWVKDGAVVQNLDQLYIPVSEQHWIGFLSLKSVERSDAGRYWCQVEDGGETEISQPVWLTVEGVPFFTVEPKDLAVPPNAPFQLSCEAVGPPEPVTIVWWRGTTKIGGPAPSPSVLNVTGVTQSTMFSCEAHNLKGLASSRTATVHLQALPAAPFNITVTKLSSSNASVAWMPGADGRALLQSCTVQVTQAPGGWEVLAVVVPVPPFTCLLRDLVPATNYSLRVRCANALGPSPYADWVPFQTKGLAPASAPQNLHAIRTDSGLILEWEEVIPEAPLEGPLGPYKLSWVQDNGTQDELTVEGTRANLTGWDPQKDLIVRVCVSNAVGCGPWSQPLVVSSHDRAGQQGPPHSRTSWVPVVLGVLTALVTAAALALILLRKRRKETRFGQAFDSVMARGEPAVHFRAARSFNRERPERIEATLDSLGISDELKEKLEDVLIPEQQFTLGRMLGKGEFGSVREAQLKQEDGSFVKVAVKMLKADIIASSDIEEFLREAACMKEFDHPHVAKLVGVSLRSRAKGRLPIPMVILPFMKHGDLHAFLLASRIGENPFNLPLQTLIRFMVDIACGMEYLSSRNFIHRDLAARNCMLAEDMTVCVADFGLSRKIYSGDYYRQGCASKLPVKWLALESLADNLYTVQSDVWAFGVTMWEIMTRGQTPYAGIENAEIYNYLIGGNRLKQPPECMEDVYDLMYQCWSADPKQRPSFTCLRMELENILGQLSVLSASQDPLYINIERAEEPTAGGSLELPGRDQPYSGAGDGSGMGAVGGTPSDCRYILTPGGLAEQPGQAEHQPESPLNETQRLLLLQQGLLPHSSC
Experiment: TAM Enzymatic Assay
Procedure: The kinase assay buffer contained 50 mM HEPES, pH7.5, 10 mM MgCl2, 1 mM EGTA, 0.01% NP-40 and 2 mM DTT. 0.1 ul test compounds dissolved in DMSO were transferred from compound plates to white 384-well assay plates (Greiner […] plates). The final concentration of DMSO was 1.25%. Enzyme solutions of 5.1 nM phosphor-Axl, or 0.0625 nM c-Mer (Carna Biosciences, 08-108), or 0.366 nM Tyro3 (Life Technologies, PR7480A) were prepared in assay buffer. A 1 mM stock solution of peptide substrate Biotin-[…]-amide SEQ ID NO: 1 (Quality Controlled Biochemicals, MA) dissolved in DMSO was diluted to 1 uM in assay buffer containing 2000 uM ATP. 4 ul enzyme solution (or assay buffer for the enzyme blank) was added to the appropriate wells in each plate, and then 4 ul/well substrate solution was added to initiate the reaction. The plate was protected from light and incubated at room temperature for 60 min. […] The plate was incubated for 1 h at room temperature, and HTRF (homogenous time resolved fluorescence) signal was measured on a PHERAstar FS plate reader (BMG labtech). Percentage of inhibition was calculated for each concentration and IC50 value was generated from curve fitting with GraphPad Prism software.

SMILES: CC(C)C(=O)N1CCC(c2cc(-c3ccc(NC(=O)c4cn(C(C)C)c(=O)n(-c5ccccn5)c4=O)cc3)c3c(N)ncnn23)CC1 [US11241438, Compound I]
- IC50: 55 nM
